Source: US9782522B2, “Compositions and methods for treating and preventing neointimal stenosis” (Yale University, priority 2011, dated 2017)

Tests used:
[1] = SB-431542 release from microparticles and scaffolds; format: physicochemical
Protocol: Total encapsulation was approximated as the amount of SB-431542 released over a 14-day period. Percent encapsulation efficiency was calculated as total encapsulation divided by maximum theoretical encapsulation. 5 mg of avidin-coated PLGA microparticles containing SB-431542, PGA-P(CL/LA) trimmed scaffolds and treated with pLLB and SB-431542-eluting microparticles as above, and SB-431542-eluting PGA-P(CL/LA) trimmed scaffolds were incubated with PBS in triplicate on a rotary shaker at 37° C. Samples were removed at specific time points and centrifuged at 13200 RPM for 10 minutes. 300 μl of supernatant was drawn and replaced with 300 μl PBS. Concentration of SB-431542 in supernatant diluted with 600 μl PBS was determined by spectrophotometry at 320 nm.

[2] = test system: constitutively active ALK-4, ALK-5, and ALK-7; set-up: dose or concentration left out as unconfirmed; settings: transfected NIH 3T3 cells; cited from earlier work
TEVG stenosis = assay: Tissue-engineered vascular graft (TEVG) stenosis model; format: in vivo, mice
Text: Scaffolds were constructed from a nonwoven polyglycolic acid (PGA) mesh (Concordia Fibers) and a co-polymer sealant solution of poly-L-lactide and -ε-caprolactone (P(CL/LA)) as previously described (Roh J D, et al. Biomaterials. 29(10):1454 (2008)). For scaffold seeding studies, bone marrow was collected from the femurs of syngeneic C57BL/6 mice. Following purification of the mononuclear cell component using Histopaque-1086 (Sigma) centrifugation, one million mononuclear cells were manually pipetted onto the scaffold. The seeded scaffold was incubated in RPMI 1640 Medium (Gibco) overnight prior to implantation as previously described (Roh J D, et al. Biomaterials. 29(10):1454 (2008)).
sFGFR1-IIIc adenovirus was previously described (Murakami M, et al. J Clin Invest. 118(10):3355 (2008)) at a dose of 5×10^10 viral particles per mouse 1 week prior to TEVG implantation by tail vein injection. Control mice were given equivalent volumes of sterile PBS. Serum level of sFGFR1-IIIc was measured by a Human IgG Subclass Profile kit (Invitrogen).
Mice treated with TGFβRI kinase inhibitor were treated with SB431542 hydrate (Sigma) in DMSO given by intraperitoneal injection twice a day from post-operative day 0 to post-operative day 14 at a dose of 10 mg/kg. Control mice were treated with equivalent volumes of sterile DMSO.
Explanted grafts were pressure fixed in 10% formalin overnight and then embedded in paraffin or glycolmethacrylate using previously published methods (Roh J D, et al. Proc Natl Acad Sci USA. 107(10):4669 (2010)). Sections were stained with H&E or Gomori Trichrome. Graft luminal diameters were measured using ImageJ software. Stenosis was defined as greater than 50% decrease in luminal diameter. Critical stenosis was defined as 80% narrowing of the luminal diameter. Graft occlusion was defined as 100% narrowing of the luminal diameter. For EM studies scaffolds were cut into 0.5 mm thick cross-sections and imaged on a […] scanning electron microscope (Hillsboro) as previously described (Roh J D, et al. Biomaterials. 29(10):1454 (2008)). TGFβ positive cell area was measured using ImageJ software. Two separate sections of each explant were counterstained with hematoxalin and imaged at 400× magnification. The number of nuclei was then counted in five regions of each section and averaged. LacZ/SMA colocalized cells were quantified in the same manner using double immunofluorescent staining imaged under 60× confocal magnification.

ALK-1, -2, -3, and -6 = settings: cited from earlier work
[3] = Tie2-CreXRosa26 mice, 10 mg/kg twice daily intraperitoneal for 2 weeks, vs DMSO

In the case of `NC(=O)c1ccc(-c2nc(-c3ccc4c(c3)OCO4)c(-c3ccccn3)[nH]2)cc1` [SB431542, 4-[4-(1,3-Benzodioxol-5-yl)-5-(2-pyridinyl)-1H-imidazol-2-yl]-benzamide], the “Release of the drug” value ([1]; PLGA microparticle system tethered to TEVG scaffold, full 2-week time course) is given as “steady release”, the Release profile ([1]; inhibitor added to the solvent used to make the grafts) is given as “favorable release profile” and the “Phosphorylation of Smad2 by constitutively active ALK-4, ALK-5, and ALK-7” value [2] is given as “completely abolished”. The TEVG luminal diameter (TEVG stenosis; [3]) was “significantly increases”, the graft patency (TEVG stenosis; [3]) was “significantly increases” and the “LacZ-positive smooth muscle cells in occluded grafts” value (TEVG stenosis; Tie2 lineage-tracing mice, drug treated) was “significant reduction”. For the same molecule, the Patency (TEVG stenosis; local drug delivery (drug in microparticles, drug in solvent), 2 weeks, unseeded grafts, mouse model) was “significantly increases”, the neotissue creation (TEVG stenosis; local drug delivery, unseeded grafts, mouse model) was “enabled neotissue creation” and the “neotissue creation (CD31 positive endothelial layer lining SMA positive smooth muscle layer)” value (TEVG stenosis; systemic treatment, 10 mg/kg twice daily intraperitoneal) was “proper neotissue creation”. For the same molecule, the “Effect on ALK-1, -2, -3, and -6 and hence BMP signaling” value (ALK-1, -2, -3, and -6) was “without effect”.
